This experiment has as its system 75 nadA (RNA, riboswitch) GGGUUUGGUUGCAACAUCCCCGUGGGUUGGGUGAUGGCUCCAAUCAGAGCCGGAACAGCGAAUCCACUGCAACCGUGA
The experiment can be described thus: in-line probing. Conditions: 20 mM Mg2+, 100 mM K+; 50 mM Tris-HCl pH 8.3, 23 °C, 42–72 h; apparent.

KD data for one compound are collected here from article PMC6859854 (2019).

In the case of `NC(=O)c1ccc[n+]([C@@H]2O[C@H](COP(=O)(O)OP(=O)(O)OC[C@H]3O[C@@H](n4cnc5c(N)ncnc54)[C@H](O)[C@@H]3O)[C@@H](O)[C@H]2O)c1`, the KD is ~ 90 μM.
